Test results taken from the CheMixHub viscosity set.
± gives the uncertainty stated by the source.

Test: xn = mol fraction of the nth substance listed

CCOC(=O)CCl + O=C1CCCCC1
viscosity [mPa·s], 101.3 kPa
Details | x1 = 0.1084 | x1 = 0.2069 | x1 = 0.306 | x1 = 0.3993 | x1 = 0.5032 | x1 = 0.6002 | x1 = 0.6945 | x1 = 0.7947 | x1 = 0.8975
298.15 K | 1.745 ± 0.022 | 1.604 ± 0.02 | 1.493 ± 0.019 | 1.403 ± 0.018 | 1.352 ± 0.017 | 1.283 ± 0.017 | 1.23 ± 0.016 | 1.191 ± 0.016 | 1.144 ± 0.015
303.15 K | 1.595 ± 0.02 | 1.47 ± 0.019 | 1.376 ± 0.018 | 1.298 ± 0.017 | 1.244 ± 0.016 | 1.184 ± 0.015 | 1.139 ± 0.015 | 1.101 ± 0.015 | 1.058 ± 0.014
308.15 K | 1.444 ± 0.019 | 1.336 ± 0.017 | 1.259 ± 0.016 | 1.19 ± 0.016 | 1.135 ± 0.015 | 1.087 ± 0.014 | 1.047 ± 0.014 | 1.011 ± 0.013 | 0.972 ± 0.013

CNC=O + O=C1CCCCC1
viscosity [mPa·s], 101 kPa
Details | x1 = 0.0868 | x1 = 0.1762 | x1 = 0.2682 | x1 = 0.3632 | x1 = 0.461 | x1 = 0.562 | x1 = 0.6662 | x1 = 0.7738 | x1 = 0.885
303.15 K | 1.804 ± 0.084 | 1.786 ± 0.083 | 1.762 ± 0.082 | 1.739 ± 0.081 | 1.714 ± 0.08 | 1.693 ± 0.079 | 1.668 ± 0.078 | 1.646 ± 0.077 | 1.618 ± 0.076
308.15 K | 1.645 ± 0.077 | 1.63 ± 0.077 | 1.61 ± 0.076 | 1.592 ± 0.075 | 1.57 ± 0.074 | 1.553 ± 0.073 | 1.532 ± 0.072 | 1.513 ± 0.072 | 1.49 ± 0.071
313.15 K | 1.472 ± 0.07 | 1.463 ± 0.069 | 1.451 ± 0.069 | 1.439 ± 0.068 | 1.425 ± 0.068 | 1.413 ± 0.067 | 1.4 ± 0.067 | 1.387 ± 0.066 | 1.371 ± 0.065
318.15 K | 1.284 ± 0.062 | 1.284 ± 0.062 | 1.283 ± 0.062 | 1.281 ± 0.062 | 1.278 ± 0.062 | 1.275 ± 0.061 | 1.271 ± 0.061 | 1.267 ± 0.061 | 1.262 ± 0.061

COC(=O)c1ccccc1 + O=C1CCCCC1
viscosity [mPa·s], 101 kPa
Details | x1 = 0.0859 | x1 = 0.1728 | x1 = 0.2643 | x1 = 0.3589 | x1 = 0.4562 | x1 = 0.5517 | x1 = 0.6575 | x1 = 0.7664 | x1 = 0.8794
303.15 K | 1.713 ± 0.017 | 1.643 ± 0.016 | 1.593 ± 0.016 | 1.552 ± 0.015 | 1.535 ± 0.015 | 1.548 ± 0.015 | 1.56 ± 0.02 | 1.597 ± 0.015 | 1.646 ± 0.015
313.15 K | 1.422 ± 0.015 | 1.367 ± 0.015 | 1.332 ± 0.015 | 1.299 ± 0.014 | 1.282 ± 0.014 | 1.292 ± 0.014 | 1.307 ± 0.014 | 1.337 ± 0.014 | 1.375 ± 0.014

CC(C)OCCO + O=C1CCCN1
298.15 K, 101 kPa
Details | viscosity [mPa·s]
x1 = 0.0071 | 13.9 ± 0.14
x1 = 0.0159 | 13.59 ± 0.14
x1 = 0.0316 | 12.93 ± 0.13
x1 = 0.0611 | 11.92 ± 0.12
x1 = 0.1046 | 10.57 ± 0.11
x1 = 0.1603 | 9.092 ± 0.1
x1 = 0.2294 | 7.709 ± 0.089
x1 = 0.2699 | 7.051 ± 0.083
x1 = 0.3267 | 6.264 ± 0.076
x1 = 0.3725 | 5.709 ± 0.071
x1 = 0.4121 | 5.308 ± 0.068
x1 = 0.4371 | 5.073 ± 0.066
x1 = 0.4623 | 4.846 ± 0.063
x1 = 0.5125 | 4.439 ± 0.059
x1 = 0.5675 | 4.067 ± 0.055
x1 = 0.6092 | 3.792 ± 0.052
x1 = 0.6833 | 3.388 ± 0.047
x1 = 0.7418 | 3.111 ± 0.044
x1 = 0.7986 | 2.871 ± 0.041
x1 = 0.8498 | 2.672 ± 0.039
x1 = 0.888 | 2.528 ± 0.037
x1 = 0.9155 | 2.412 ± 0.036
x1 = 0.943 | 2.304 ± 0.034
x1 = 0.9583 | 2.252 ± 0.034
x1 = 0.9786 | 2.193 ± 0.033

CCNCCO + O=C=O
viscosity [mPa·s], 101.3 kPa
Details | 293.15 K | 303.15 K | 313.15 K | 323.15 K
x2 = 0.09091 | 51.76 ± 10 | 29.14 ± 5.8 | 17.6 ± 3.5 | 11.32 ± 2.3
x2 = 0.1667 | 197.6 ± 40 | 99.53 ± 20 | 54.38 ± 11 | 31.96 ± 6.4
x2 = 0.2308 | 791.4 ± 160 | 361 ± 73 | 179.9 ± 36 | 97.29 ± 19

CCCCOCCO + O=[N+]([O-])c1ccccc1
298.15 K, 101 kPa
Details | viscosity [mPa·s]
x2 = 0.0547 | 2.794 ± 0.031
x2 = 0.1022 | 2.774 ± 0.031
x2 = 0.2045 | 2.736 ± 0.029
x2 = 0.3045 | 2.699 ± 0.027
x2 = 0.4006 | 2.651 ± 0.026
x2 = 0.4508 | 2.618 ± 0.025
x2 = 0.4991 | 2.58 ± 0.024
x2 = 0.5486 | 2.537 ± 0.023
x2 = 0.594 | 2.492 ± 0.023
x2 = 0.6924 | 2.376 ± 0.021
x2 = 0.7994 | 2.223 ± 0.018
x2 = 0.8996 | 2.042 ± 0.016
x2 = 0.9389 | 1.959 ± 0.015

CCCCCCCCCCCC[P+](CCCC)(CCCC)CCCC.N#Cc1ccc[n-]1 + OCCN(CCO)CCO
100 kPa
Details | viscosity [mPa·s]
293.15 K, x1 = 0.017 | 983 ± 150
293.15 K, x1 = 0.244 | 974 ± 150
293.15 K, x1 = 0.325 | 926 ± 140
293.15 K, x1 = 0.431 | 828 ± 120
293.15 K, x1 = 0.538 | 765 ± 120
293.15 K, x1 = 0.755 | 675 ± 100
298.15 K, x1 = 0.035 | 674 ± 100
298.15 K, x1 = 0.054 | 682 ± 100
298.15 K, x1 = 0.096 | 687 ± 100
298.15 K, x1 = 0.121 | 686 ± 100
298.15 K, x1 = 0.177 | 678 ± 100

CCCCOCCO + OCCO
101 kPa
Details | viscosity [mPa·s]
293.15 K, x1 = 0.0517 | 19.96 ± 0.13
293.15 K, x1 = 0.099 | 18.69 ± 0.12
293.15 K, x1 = 0.2024 | 15.74 ± 0.1
293.15 K, x1 = 0.2993 | 13.1 ± 0.082
293.15 K, x1 = 0.4009 | 10.68 ± 0.066
293.15 K, x1 = 0.4475 | 9.72 ± 0.06
293.15 K, x1 = 0.5022 | 8.702 ± 0.053
293.15 K, x1 = 0.5447 | 7.996 ± 0.049
293.15 K, x1 = 0.6011 | 7.158 ± 0.044
293.15 K, x1 = 0.7009 | 5.905 ± 0.036
293.15 K, x1 = 0.8048 | 4.826 ± 0.03
293.15 K, x1 = 0.8992 | 3.996 ± 0.025
293.15 K, x1 = 0.9413 | 3.661 ± 0.023
298.15 K, x1 = 0.0515 | 16.18 ± 0.11
298.15 K, x1 = 0.1025 | 15.09 ± 0.098
298.15 K, x1 = 0.1973 | 12.9 ± 0.083
298.15 K, x1 = 0.2977 | 10.71 ± 0.068
298.15 K, x1 = 0.3863 | 9.036 ± 0.057
298.15 K, x1 = 0.4425 | 8.124 ± 0.051
298.15 K, x1 = 0.4743 | 7.652 ± 0.048
298.15 K, x1 = 0.5523 | 6.625 ± 0.041
298.15 K, x1 = 0.6012 | 6.061 ± 0.038
298.15 K, x1 = 0.6986 | 5.082 ± 0.032
298.15 K, x1 = 0.783 | 4.349 ± 0.027
298.15 K, x1 = 0.8985 | 3.469 ± 0.022
298.15 K, x1 = 0.9474 | 3.145 ± 0.02
303.15 K, x1 = 0.0582 | 12.73 ± 0.085
303.15 K, x1 = 0.098 | 12.07 ± 0.08
303.15 K, x1 = 0.2036 | 10.21 ± 0.067
303.15 K, x1 = 0.2996 | 8.621 ± 0.056
303.15 K, x1 = 0.4 | 7.191 ± 0.046
303.15 K, x1 = 0.4503 | 6.57 ± 0.042
303.15 K, x1 = 0.5015 | 5.989 ± 0.039
303.15 K, x1 = 0.543 | 5.563 ± 0.036
303.15 K, x1 = 0.6003 | 5.022 ± 0.033
303.15 K, x1 = 0.703 | 4.185 ± 0.027
303.15 K, x1 = 0.8036 | 3.495 ± 0.022
303.15 K, x1 = 0.8935 | 2.979 ± 0.019
303.15 K, x1 = 0.95 | 2.691 ± 0.017
